Laboratory results: patent US20230117324A1, “OXAZINE MONOACYLGLYCEROL LIPASE (MAGL) INHIBITORS” (Hoffmann-La Roche Inc., priority 2018, published 2023)
pIC50: −log10 of the molar value.

biological target: T1, MAGL (Homo sapiens, UniProt Q99685); experiment: MAGL inhibition, 2-AG assay (hydrolysis of 2-arachidonoylglycerol, arachidonic acid by mass spectrometry); assay type: biochemical; details: 2-AG assay (footnote [b])
T1 sequence (Q99685 1-303): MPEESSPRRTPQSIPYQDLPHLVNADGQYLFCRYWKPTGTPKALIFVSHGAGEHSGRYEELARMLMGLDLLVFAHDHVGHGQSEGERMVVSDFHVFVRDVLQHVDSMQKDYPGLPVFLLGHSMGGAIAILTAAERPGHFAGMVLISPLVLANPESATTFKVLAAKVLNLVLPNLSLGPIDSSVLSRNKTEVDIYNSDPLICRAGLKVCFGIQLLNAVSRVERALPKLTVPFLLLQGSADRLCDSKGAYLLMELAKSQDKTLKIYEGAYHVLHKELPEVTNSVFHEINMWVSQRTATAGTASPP
Experimental: Alternatively, compounds were profiled for MAGL inhibitory activity by determining the enzymatic activity by following the hydrolysis of the natural substrate 2-arachidonoylglycerol (2-AG) resulting in arachidonic acid, which can be followed by mass spectrometry. This assay is hereinafter abbreviated “2-AG assay”.
The 2-AG assay was carried out in 384 well assay plates (PP, Greiner Cat #784201) in a total volume of 20 μL. Compound dilutions were made in 100% DMSO (VWR Chemicals 23500.297) in a polypropylene plate in 3-fold dilution steps to give a final concentration range in the assay from 12.5 μM to […]. 0.25 μL compound dilutions (100% DMSO) were added to 9 μL MAGL in assay buffer (50 mM TRIS (GIBCO, 15567-027), 1 mM EDTA (Fluka, 03690-100 mL), 0.01% (v/v) Tween. After shaking, the plate was incubated for 15 min at RT. To start the reaction, 10 μL 2-arachidonoylglycerol in assay buffer was added. The final concentrations in the assay was […] and 8 μM 2-arachidonoylglyerol. After shaking and 30 min incubation at RT, the reaction was quenched by the addition of 40 μL of ACN containing 4 μM of d8-arachidonic acid. The amount of arachidonic acid was traced by an online SPE system (Agilent Rapidfire) coupled to a triple quadrupole mass spectrometer (Agilent 6460). A C18 SPE cartridge (G9205A) was used in an ACN/water liquid setup. The mass spectrometer was operated in negative electrospray mode following the mass transitions 303.1→259.1 for arachidonic acid and 311.1→267.0 for d8-arachidonic acid. The activity of the compounds was calculated based on the ratio of intensities [arachidonic acid/d8-arachidonic acid].

| SMILES | pIC50 |
| --- | --- |
| O=C1CO[C@H]2CCN(C(=O)N3CCC(c4ccc(OC(F)(F)F)cc4)C3)C[C@H]2N1 (stereo partly drawn) [Example 219, (4aR,8aS)-6-[3-[4-(Trifluoromethoxy)phenyl]pyrrolidine-1-carbonyl]-4,4a,5,7,8,8a-hexahydropyrido[4,3-b][1,4]oxazin-3-one] | 6.56 |
| O=C1CO[C@H]2CCN(C(=O)N3CCC(c4ccc(-c5ccc(Cl)cc5Cl)cc4)CC3)C[C@H]2N1 [Example 169, (4aR,8aS)-6-(4-(2′,4′-Dichloro-[1,1′-biphenyl]-4-yl)piperidine-1-carbonyl)hexahydro-2H-pyrido[4,3-b][1,4]oxazin-3(4H)-one] | 8.40 |
| CC(Oc1ccc(C(F)(F)F)cc1)C1CN(C(=O)N2CC[C@@H]3OCC(=O)N[C@@H]3C2)C1 (single isomer, unassigned) [Example 98, (4aR,8aS)-6-(3-((R or S)-1-(4-(Trifluoromethyl)phenoxy)ethyl)azetidine-1-carbonyl)hexahydro-2H-pyrido[4,3-b][1,4]oxazin-3(4H)-one] | 7.21 |
| O=C1CO[C@H]2CCN(C(=O)N3CCN(C(c4ccc(F)cc4F)C(F)(F)F)CC3)C[C@H]2N1 (stereo partly drawn) [Example 53, (4aR,8aS)-6-(4-(1-(2,4-Difluorophenyl)-2,2,2-trifluoroethyl)piperazine-1-carbonyl)hexahydro-2H-pyrido[4,3-b][1,4]oxazin-3(4H)-one] | 6.38 |
| O=C1CO[C@H]2CCN(C(=O)N3CCC(c4c[nH]c5ccc(F)cc45)C3)C[C@H]2N1 (stereo partly drawn) [Example 208, (4aR,8aS)-6-(3-(5-Fluoro-1H-indol-3-yl)pyrrolidine-1-carbonyl)hexahydro-2H-pyrido[4,3-b][1,4]oxazin-3(4H)-one] | 7.32 |
| O=C1CO[C@H]2CCN(C(=O)N3CC(c4ccc(OC(F)(F)F)cc4F)C3)C[C@H]2N1 [Example 182, (4aR,8aS)-6-(3-(2-Fluoro-4-(trifluoromethoxy)phenyl)azetidine-1-carbonyl)hexahydro-2H-pyrido[4,3-b][1,4]oxazin-3(4H)-one] | 8.10 |
| COc1ccc(C(c2ccncc2)C2CCN(C(=O)N3CC[C@@H]4OCC(=O)N[C@@H]4C3)CC2)cc1OC (single isomer, unassigned) [Example 150, (4aR,8aS)-6-[4-[(S or R)-(3,4-Dimethoxyphenyl)-(4-pyridyl)methyl]piperidine-1-carbonyl]-4,4a,5,7,8,8a-hexahydropyrido[4,3-b][1,4]oxazin-3-one] | 8.10 |
| O=C1CO[C@H]2CCN(C(=O)N3CC(c4ccc(C56CC(C5)C6)cc4)C3)C[C@H]2N1 [Example 206, (4aR,8aS)-6-(3-(4-(Bicyclo[1.1.1]pentan-1-yl)phenyl)azetidine-1-carbonyl)hexahydro-2H-pyrido[4,3-b][1,4]oxazin-3(4H)-one] | 8.30 |
| Cc1ccccc1-c1ccc(C2CN(C(=O)N3CC[C@@H]4OCC(=O)N[C@@H]4C3)C2)cc1 [Example 137, (4aR,8aS)-6-(3-(2′-Methyl-[1,1′-biphenyl]-4-yl)azetidine-1-carbonyl)hexahydro-2H-pyrido[4,3-b][1,4]oxazin-3(4H)-one] | 10.00 |
| O=C1CO[C@H]2CCN(C(=O)N3CCC(C(c4ccccc4)c4ccc(OCCF)cc4)CC3)C[C@H]2N1 (single isomer, unassigned) [Example 79, (4aR,8aS)-6-[4-[(S or R)-[4-(2-Fluoroethoxy)phenyl]-phenylmethyl]piperidine-1-carbonyl]-4,4a,5,7,8,8a-hexahydropyrido[4,3-b][1,4]oxazin-3-one] | 9.70 |
| O=C1CO[C@H]2CCN(C(=O)N3CC(c4ccc(N5CCCC5C(F)(F)F)cc4)C3)C[C@H]2N1 (single isomer, unassigned) [Example 194] | 10.00 |
| O=C1CO[C@H]2CCN(C(=O)N3CC(c4ccc(C(F)(F)F)cc4)C3)C[C@H]2N1 [Example 146, (4aR,8aS)-6-(3-(4-(Trifluoromethyl)phenyl)azetidine-1-carbonyl)hexahydro-2H-pyrido[4,3-b][1,4]oxazin-3(4H)-one] | 7.47 |
| O=C1CO[C@H]2CCN(C(=O)N3CC(c4ccc(O)c(Cl)c4)C3)C[C@H]2N1 [Example 223, (4aR,8aS)-6-(3-(3-Chloro-4-hydroxyphenyl)azetidine-1-carbonyl)hexahydro-2H-pyrido[4,3-b][1,4]oxazin-3(4H)-one] | 6.73 |
| Cc1ccc(C(c2ccccc2)C2CCN(C(=O)N3CC[C@@H]4OCC(=O)N[C@@H]4C3)CC2)cc1 (single isomer, unassigned) [Example 85, (4aR,8aS)-6-(4-((R or S)-Phenyl(p-tolyl)methyl)piperidine-1-carbonyl)hexahydro-2H-pyrido[4,3-b][1,4]oxazin-3(4H)-one] | 10.00 |
| O=C1CO[C@H]2CCN(C(=O)N3CCC(c4cccc(Br)c4)C3)C[C@H]2N1 (single isomer, unassigned) [Example 228, (4aR,8aS)-6-[(3S or R)-3-(3-Bromophenyl)pyrrolidine-1-carbonyl]-4,4a,5,7,8,8a-hexahydropyrido[4,3-b][1,4]oxazin-3-one] | 6.79 |
| O=C1CO[C@H]2CCN(C(=O)N3CCC(C(c4ccc(F)cc4)c4ccc(OCCF)cc4)CC3)C[C@H]2N1 (single isomer, unassigned) [Example 100, (4aR,8aS)-6-(4-((R or S)-(4-(2-Fluoroethoxy)phenyl)(4-fluorophenyl)methyl)piperidine-1-carbonyl)hexahydro-2H-pyrido[4,3-b][1,4]oxazin-3(4H)-one] | 8.40 |
| O=C1CO[C@H]2CCN(C(=O)N3CC(c4ccc(-c5ccccc5)c(Cl)c4)C3)C[C@H]2N1 [Example 131, (4aR,8aS)-6-(3-(2-Chloro-[1,1′-biphenyl]-4-yl)azetidine-1-carbonyl)hexahydro-2H-pyrido[4,3-b][1,4]oxazin-3(4H)-one] | 9.40 |
| Cn1ncc2c(C3CN(C(=O)N4CC[C@@H]5OCC(=O)N[C@@H]5C4)C3)cccc21 [Example 215, (4aR,8aS)-6-(3-(1-Methyl-1H-indazol-4-yl)azetidine-1-carbonyl)hexahydro-2H-pyrido[4,3-b][1,4]oxazin-3(4H)-one] | 6.26 |
| O=C1CO[C@H]2CCN(C(=O)N3CCC(C(c4ccccc4)c4cccc(OCCF)c4)CC3)C[C@H]2N1 (single isomer, unassigned) [Example 66, (4aR,8aS)-6-(4-((S or R)-(3-(2-Fluoroethoxy)phenyl)(phenyl)methyl)piperidine-1-carbonyl)hexahydro-2H-pyrido[4,3-b][1,4]oxazin-3(4H)-one] | 9.40 |
| COc1ccc(C(c2ccc(F)cc2)C2CCN(C(=O)N3CC[C@@H]4OCC(=O)N[C@@H]4C3)CC2)cc1OC (single isomer, unassigned) [Example 73, (4aR,8aS)-6-(4-((S or R)-(3,4-Dimethoxyphenyl)(4-fluorophenyl)methyl)piperidine-1-carbonyl)hexahydro-2H-pyrido[4,3-b][1,4]oxazin-3(4H)-one] | 9.40 |
| O=C1CO[C@H]2CCN(C(=O)N3CC(c4ccc(Br)c(Cl)c4)C3)C[C@H]2N1 [Example 132, (4aR,8aS)-6-(3-(4-Bromo-3-chlorophenyl)azetidine-1-carbonyl)hexahydro-2H-pyrido[4,3-b][1,4]oxazin-3(4H)-one] | 8.00 |
| O=C1CO[C@H]2CCN(C(=O)N3CCC(c4ccc(Br)cc4)C3)C[C@H]2N1 (stereo partly drawn) [Example 184, (4aR,8aS)-6-(3-(4-Bromophenyl)pyrrolidine-1-carbonyl)hexahydro-2H-pyrido[4,3-b][1,4]oxazin-3(4H)-one] | 6.84 |
| CC(OC1CN(c2ccc(C3CN(C(=O)N4CC[C@@H]5OCC(=O)N[C@@H]5C4)C3)cc2)C1)C(F)(F)F (single isomer, unassigned) [Example 160, (4aR,8aS)-6-[3-[4-[3-[(1S or 1R)-2,2,2-Trifluoro-1-methyl-ethoxy]azetidin-1-yl]phenyl]azetidine-1-carbonyl]-4,4a,5,7,8,8a-hexahydropyrido[4,3-b][1,4]oxazin-3-one] | 9.00 |
| O=C1CO[C@H]2CCN(C(=O)N3CC(c4cccc(OC(F)(F)F)c4)C3)C[C@H]2N1 [Example 171, (4aR,8aS)-6-(3-(3-(Trifluoromethoxy)phenyl)azetidine-1-carbonyl)hexahydro-2H-pyrido[4,3-b][1,4]oxazin-3(4H)-one] | 7.36 |
| N#Cc1cc(Cl)ccc1-c1ccc(C2CN(C(=O)N3CC[C@@H]4OCC(=O)N[C@@H]4C3)C2)cc1 [Example 159, 2-[4-[1-[(4aR,8aS)-3-Oxo-4,4a,5,7,8,8a-hexahydropyrido[4,3-b][1,4]oxazine-6-carbonyl]azetidin-3-yl]phenyl]-5-chloro-benzonitrile] | 10.00 |
